Literature values in US10596151B2, “Methods and pharmaceutical compositions for reducing arterial stiffness with a combination of a therapeutic agent blocking the angiotensin receptor and a therapeutic agent inhibiting the NEP enzyme” (Novartis AG, priority 2015, dated 2020).

System: patients with hypertension
Conditions: after 12 weeks of therapy; cited from earlier work

With `O=C(N[C@H]1CCS[C@H]2CCC[C@@H](C(=O)O)N2C1=O)[C@@H](S)Cc1ccccc1` [omapatrilat] as the compound, how does the “aortic characteristic impedance compared with enalapril” value read?
Its value is “greater improvements in aortic characteristic impedance compared with enalapril”.
